Values belong to the molecule of their own block, whether it stands above or below them.
Experiments:
[1] = cited from earlier work
[2] = biological target: CYP2C9 (Homo sapiens, UniProt P11712); assay: Kinetic study of metabolite formation by recombinant CYP2C9; conditions: recombinant CYP2C9 incubations
[3] = mouse, in vivo, po, 40 mg/kg
[4] = cited from earlier work; remark: listed apart in the source

Chain of CYP2C9 (P11712 whole entry): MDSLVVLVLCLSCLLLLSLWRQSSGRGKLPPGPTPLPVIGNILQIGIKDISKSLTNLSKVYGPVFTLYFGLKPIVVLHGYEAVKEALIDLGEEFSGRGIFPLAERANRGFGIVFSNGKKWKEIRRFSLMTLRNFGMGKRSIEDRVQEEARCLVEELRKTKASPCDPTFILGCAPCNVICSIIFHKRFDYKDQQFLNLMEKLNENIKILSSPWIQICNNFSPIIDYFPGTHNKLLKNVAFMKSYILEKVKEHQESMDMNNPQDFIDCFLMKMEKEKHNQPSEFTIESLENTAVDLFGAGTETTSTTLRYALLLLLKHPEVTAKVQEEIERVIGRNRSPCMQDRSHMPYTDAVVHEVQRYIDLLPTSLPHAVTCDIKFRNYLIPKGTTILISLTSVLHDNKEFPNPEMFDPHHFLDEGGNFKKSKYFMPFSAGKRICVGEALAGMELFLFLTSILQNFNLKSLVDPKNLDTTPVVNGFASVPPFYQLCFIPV

Compound: O=C(C1CCCCC1)N1CC(=O)N2CCc3ccccc3[C@@H]2C1 [(R)-PZQ]
side effects compared with racemic PZQ ([1]; single administration of 20 mg/kg vs 40 mg/kg racemic): fewer side effects
activity compared with 40 mg/kg of racemic PZQ ([1]; single administration of 20 mg/kg): same activity
production of metabolite V [2]: not detected

Source (matrix in which detected) [3]: urine, feces
Compound: O=C(C1CCC(O)CC1)N1CC(=O)N2CCc3ccccc3C2C1 (centres unmarked) [III, 4-OH PZQ]

Compound: O=C(C1CCCCC1)N1CC(=O)N2CCc3ccccc3[C@H]2C1 [(S)-PZQ]
systemic levels compared with (R)-PZQ [4]: higher

Reference: article PMC4168258 (Biochemical pharmacology, 2014)
